Assay results from patent US10344002B2, “Compositions and methods for treating metabolic disorders” (NuSirt Sciences, Inc., priority 2016, dated 2019).

Columns and labels:
[1] = system: C2C12 muscle cells; experiment: Fatty acid oxidation (oxygen consumption rate, Seahorse XF-24) in C2C12 muscle cells; assay type: cell-based; settings: C2C12 muscle cells
Method: (§1) Cell Culture: C2C12 muscle cells were seeded with 40,000 cells per well on Seahorse tissue culture plates in Dulbecco's modified eagle's medium (DMEM) containing 10% fetal bovine serum (FBS) and antibiotics (1% penicillin-streptomycin) at 37° C. in 5% CO2. After reaching confluency (24 hours), cells were induced to differentiate with DMEM containing 2% Horse Serum for 3 to 4 days until myotubes were fully formed. Cells were then treated with indicated concentration of Compound 2 for 24 hours.
(§2) Compound 2 was dissolved in 100% DMSO to a stock concentration of 100 mM. This stock was further diluted to indicated concentrations in DMEM media.
Fatty acid oxidation: Baseline and palmitate-stimulated oxygen consumption rates were measured with XF-24 analyzer (Seahorse Bioscience (now part of Agilent Technologies), MA, USA). After 24 hour treatment with Compound 2 of differentiated C2C12 muscle cells, cells were washed twice with non-buffered carbonate-free pH 7.4 low glucose (2.5 mM) DMEM containing carnitine (0.5 mM), equilibrated with 600 μl of the same media in a non-CO2 incubator for 45 minutes, and then inserted into the instrument for 15 minutes of further equilibration, followed by O2 consumption measurement. Three successive baseline measures at five-minute intervals were taken prior to injection of palmitate (200 μM final concentration). Sets of three five-minute intervals followed by 10-minute time delay were continued over a 2 to 3 hour period after palmitate injection. The area under the curve of 02 consumption change from baseline for each sample was then calculated and used for subsequent analysis. Data are represented as mean±SD for each treatment group.

[2] = system: 3T3L1 adipocytes; experiment: Fatty acid oxidation (oxygen consumption rate) in 3T3L1 adipocytes; assay type: cell-based; settings: for baseline OCR, area under the curve (FIG. 10A): control approximately 6000; for palmitate induced OCR, area under the curve (FIG. 10B): control approximately 52000
[3] = system: AMPK; experiment: Western blot, P-AMPK/AMPK in C2C12 muscle cells; assay type: cell-based; settings: 4 hours; for ratio of P-AMPK/AMPK (FIG. 6A): control approximately 0.75
Method: as §1, with “seeded with 400,000 cells per” for “seeded with 40,000 cells per”, “well on 6-well tissue culture” for “well on Seahorse tissue culture”, “Serum for 5 to 6” for “Serum for 3 to 4”, “5 to 6 days until” for “3 to 4 days until”, “2 for 4 and 24 hours.” for “2 for 24 hours.”
as §2
Western blots: Phospho-AMPK, AMPK, Phospho-ACC, ACC antibodies were obtained from Cell Signaling (Danvers, Mass.). Sir2 antibody was obtained from MyBiosource (San Diego, Calif.). Protein levels of cell extracts were measured by BCA kit (Thermo Scientific, Pittsburgh, Pa.). For Western blot, 10-50 μg protein was resolved on 4-15% gradient polyacrylaminde gels (Criterion precast gel, Bio-Rad Laboratories, Hercules, Calif.), transferred to either PVDF or nitrocellulose membranes, incubated in blocking buffer (3% BSA or 5% non-fat dry milk in TBS) and then incubated with primary antibody (1:1000 dilution), washed and incubated with horseradish peroxidase- or fluorescence-conjugated secondary antibody (1:10000 dilution). Visualization was conducted using BioRad ChemiDoc instrumentation and software (Bio-Rad Laboratories, Hercules, Calif.) and band intensity was assessed using Image Lab 4.0 with correction for background and loading controls.

[4] = system: C. elegans; experiment: Lipid accumulation (Oil Red Staining) in C. elegans; assay type: in vivo; settings: for lipid accumulation, fold change of control (FIG. 12): 3 days, absorbance normalized to worm number
Method: C. elegans culture: Synchronized L1 wild-type worms were transferred to NGM agar plates with the following treatments until adulthood (3 days): 1. control NGM plates, 2. NGM plate with 10 nM Compound 2 added to E. coli suspension, 3. NGM plate with 100 nM Compound 2 added to E. coli suspension.
Lipid accumulation (Oil Red Staining): Worms were washed off the plate with 2×5 ml PBS and collected in centrifuge tubes. The tubes were centrifuged at 1000 g for 30 seconds, then the supernatant was removed and the worm pellet was washed again with 5 ml PBS. Then the supernatant was discarded except approximately 400 ul, to which 200 ul of 10% paraformaldehyde was added and then gently rocked for 60 minutes at room temperature. To remove the paraformaldehyde, worms were centrifuged at 1500 g for 30 sec, then washed 1× with 5 ml PBS, centrifuged and supernatant removed except 400 ul, to which 600 ul of 100% isopropanol was added and mixed by inverting the tube and incubated for 15 minutes at room temperature. After centrifugation, the isopropanol was removed, then 1 ml of 60% filtered OilRed (4 vol ddH2O and 6 vol of OilRed stock (OilRed stock: dilute 0.35 g OilRed O (Sigma Cat #0-0625, FW 408.5) in 100 ml 100% isopropanol, stirred overnight, then filtered (0.2 um) and stored at room temperature), let stand for 15 to 20 min and filter with 0.2 um) was added. Worms were rotated on shaker overnight at room temperature and protected from light. Next day, the worms were centrifuged at 1200 g for 30 seconds, the dye was removed, and worms were washed 4 times with ddH2O. At last washing step, 2 ml of ddH2O was added and worms were counted under microscope in 3×20 ul drops. The worm number was multiplied by 100 to calculate the total worm number for normalization of the absorbance data. Then worm solution was centrifuged again, supernatant removed and 300 ul of 100% isopropanol was added to elute the OilRed. 100 ul aliquots of OilRed-isopropanol in transferred to 96-well plate and the absorbance was measured at 500 nm.

`CC(C)C[C@@H]1NC(N=C(N)N)=NC1=O` [Compound 2] was tested. Which “increase of the baseline oxygen consumption rate (area under the curve)” value ([1]; 10 nM, 24 hour treatment, prior to palmitate injection, p=0.002) did it give?
Its value is 60%.

And the “further increase of palmitate-induced oxygen consumption vs control” value ([1]; after palmitate injection (200 μM), p=0.002)?
The value was about 75%.

And the “effect on baseline and palmitate-stimulated oxygen consumption rate (OCR)” value ([1]; concentrations in excess of luM (not shown))?
The value was “no effect”.

And the “dose-response of OCR effects (area under the curve)” value ([1]; dose-responsive only at 0-10 nM)?
Its value is “plateaued between 10 and 100 nM”.

And the “dose-response on baseline and palmitate-stimulated OCR” value ([1]; higher concentrations (>100 nM))?
The value was “diminishing responses”.

What about the “increase of baseline OCR” value ([2]; 10 nM, 48 hours of treatment) of the same molecule?
Its value is 50%.

What about the “increase of palmitate stimulated OCR” value ([2]; 10 nM, 48 hours of treatment) of the same molecule?
Its value is 43%.

What about the “baseline OCR, area under the curve (FIG. 10A)” value ([2]; 10 nM) of the same molecule?
Its value is “approximately 7900 pMoles/min”.

What about the “palmitate induced OCR, area under the curve (FIG. 10B)” value ([2]; 10 nM) of the same molecule?
The value was “approximately 78000 pMoles/min”.

And the “effect on baseline and palmitate stimulated OCR” value ([2]; 100 nM, compared with 10 nM)?
The value was “smaller effect”.

And the “baseline OCR, area under the curve (FIG. 10A)” value ([2]; 100 nM)?
Its value is “approximately 7000 pMoles/min”.

What about the “palmitate induced OCR, area under the curve (FIG. 10B)” value ([2]; 100 nM) of the same molecule?
Its value is “approximately 62000 pMoles/min”.

What about the “effect on the ratio of P-AMPK/AMPK” value ([3]; 10 nM) of the same molecule?
The value was “no effect”.

What about the “ratio of P-AMPK/AMPK (FIG. 6A)” value ([3]; 10 nM) of the same molecule?
Its value is “approximately 0.65”.

What about the “ratio of P-AMPK/AMPK (FIG. 6A)” value ([3]; 100 nM) of the same molecule?
The value was “approximately 1.35”.

What about the “increase in the ratio of P-AMPK/AMPK” value ([3]; 100 nM, p=0.03) of the same molecule?
The value was 78%.

What about the “lipid accumulation, fold change of control (FIG. 12)” value ([4]; 10 nM) of the same molecule?
Its value is “approximately 0.45 fold change”.

What about the “lipid accumulation, microscopic images (FIG. 13B)” value ([4]; 100 nM) of the same molecule?
Its value is “significant reduction”.

And the “lipid accumulation, fold change of control (FIG. 12)” value ([4]; 100 nM)?
The value was “approximately 0.35 fold change”.

And the “reduction in lipid accumulation” value ([4]; 100 nM, L1 stage to adulthood (3 days), p<0.05)?
Its value is 60%.
